From US20230181524A1, “PHARMACEUTICAL COMBINATION AND USE THEREOF” (NATURAL MEDICINE INSTITUTE OF ZHEJIANG YANGSHENGTANG CO., …, priority 2020, published 2023)
Several values for one entry are separate records, joined by “and”; a condition that tells them apart may be missing. Equal entries are not always repeated. d = 2'-deoxy (DNA)

Key:
[1] = test system: HOS human osteosarcoma cells; experiment: Cell counts of drug combination administration (Trypan Blue), cell viability
Protocol: (§1) (1) Cells were plated in a 10 cm culture plate to grow a density of about 90%. The medium was removed, and the adherent cells were washed once with a PBS buffer. 1 mL of trypsin was added, and immediately discarded after mixing well. The cells were placed in the incubator and digested for about 5 min, and then about 10 ml of fresh medium was added. 10 μL was taken for counting.
(§2) (2) 10 μL of the well-mixed cells were taken and mixed into 10 μL of Trypan Blue solution, and counted.
(§3) (3) After counting, the cells were diluted to 1×10^5 cells/ml. The diluted cells were mixed well, and plated into a 24-well plate with 500 μL per well, i.e., about 50,000 cells per well.
(§4) (4) The cells plated in the 24-well plate were cultured for about 24h, and then drugs were added. […]
(§5) (5) After 24h of dosing, the medium was discarded. About 150 μL of trypsin was added and then discarded. The cells were digested for 5 min;
(§6) (6) After digestion, equivalent amounts of PBS were added into each well and mixed uniformly. Then, 10 μL/well of Trypan Blue solution was added and mixed uniformly. 10 μL of the well-mixed solution was taken and counted. In accordance with “Cell viability=Cell Count of Test Group/Cell Count of Control Group×100%”, the cell viability of various groups was calculated.
(§7) The coefficient of drug in interaction (CDI) was used to evaluate the nature of the interaction between the two drugs. The test groups were divided into the control group, the group of A drug, the group of B drug and the group of AB in combination, and used for detecting the cell viability in A, B and AB groups, respectively.

[2] = test system: HEK293 cells; experiment: Cell viability compared with HEK293 cells (specificity); assay type: cell-based; details: in combination with ascorbic acid
Protocol: HEK293 cells, HOS human osteosarcoma cells, and 143B human osteosarcoma cells were subcultured in an incubator at 37° C., 5% CO2 using a RPMI-1640 medium containing 10% fetal bovine serum (FBS).
(§8) 10 μL was taken for counting.
(5) After 24h of dosing, the medium was discarded. […] The cells were digested for 5 min;

[3] = test system: 143B human osteosarcoma cells; experiment: Cell counts of drug combination administration (Trypan Blue), cell viability
Protocol: as §1, §2, §3, §4, §5, §6, §7

[4] = test system: MC38 human colon cancer cells; experiment: Cell viability, method of Example 1
Protocol: as §1, §2, §3
(§9) (4) The cells plated in the 24-well plate were cultured for about 24h, and then drugs were added. Various test groups comprise 5 groups as follows: the single-drug group of PKF118-310 (with a concentration of 0.1 μM), the group of ascorbic acid (with a concentration of 0.5 mM), the group of PKF118-310 (with a concentration of 0.1 μM) in combination with ascorbic acid (with a concentration of 0.5 mM); the control group that is a cell group to which only solvent DMSO is added; and the blank group that is a group to which no cell is added and only solvent (DMSO) is added.
as §5, §6
(§10) The inhibitory effect of PKF118-310 on the MC38 human colon cancer cells and the HCT116 human […] cancer cells was detected in accordance with the corresponding method of Example 1.

[5] = test system: HCT116 human colon cancer cells; experiment: Cell viability of single-drug administration, concentration gradient (CCK-8); assay type: cell-based; details: concentrations ranging from 0 to 100 μM
Protocol: as §8
(§11) The diluted cells were plated into a 96-well plate with 100 μL per well, i.e., about 10,000 cells per well. […]
(§12) (4) After 24h of dosing, 10 μL of CCK-8 solution was added. The cells were incubated in the incubator for 1-2 hours, and then measured at 490 nm using a microplate reader for the absorbance (OD value) of each well. The results were recorded. The relative cell viability was calculated as follows:
(§13) The cell viability of the control group obtained according the equation is 100%.

[6] = test system: MC38 human colon cancer cells; experiment: as above; assay type: cell-based; details: concentrations ranging from 0 to 100 μM
Protocol: as §8, §11, §12, §13

[7] = test system: 143B human osteosarcoma cells; experiment: siRNA against β-catenin transfection with or without sodium ascorbate, cell viability by cell count; assay type: cell-based; details: 143B cells
Excerpt: SiRNA is designed against the nucleotide sequence of β-catenin, and the siRNA codes are 484, 1202, and 1387, respectively. The sequences of sense strand and anti-sense strand of 484 are shown in SEQ ID NO. 1-2, respectively, and the sequences of sense strand and anti-sense strand of 1202 are shown in SEQ ID NO. 3-4, respectively, and the sequences of sense strand and anti-sense strand of 1387 are shown in SEQ ID NO. 5-6, respectively, wherein there are 2 T-bases at the 3′ end of each strand. 143B human osteosarcoma cells were subcultured at 37° C., 5% CO2 in an incubator with a RPMI-1640 medium containing 10% fetal bovine serum. The particular steps were as follows:
as §8
Then, the medium was discarded and replaced with 500 μL of serum-free medium.
(5) […] of siRNA was added into 50 μL of serum-free medium and mixed well.
(6) 1 μL of Lipofectamin 2000 transfection reagent was added into 50 μL of serum-free medium, mixed well, and stood at room temperature for 5 min.
(7) The siRNA diluted in Step (5) and the Lipofectamin 2000 reagent obtained in Step (6) were mixed, shaken well, and stood at room temperature for 20 min.
(8) 100 μL of the mixture obtained in Step (7) was added into the wells of the cell culture plate, cultured at 37° C. for 4h, and then the medium was replaced with normal medium. And an ascorbic acid solution with a concentration of 0.5 mM into the ascorbic acid group and the combination group.
(9) After 24h of dosing, the medium was discarded. […] The cells were digested for 5 min;

[8] = test system: DB lymphoma cells; details: 2 mM ascorbic acid alone
Protocol: as §1, §2, §3, §9, §5, §6
For example, as for the DB lymphoma cells, the control group involves adding the solvent DMSO alone, the Vc group involves adding 2 mM of ascorbic acid, the low-dose PKF group involves adding 2 μM of PKF118-310, the low-dose PKF+Vc group involves adding 2 μM of PKF118-310 and 2 mM of ascorbic acid, the high-dose PKF group involves adding 5 μM of PKF118-310, and the high-dose PKF+the Vc group involves adding 5 μM of PKF118-310 and 2 mM of ascorbic acid.

[9] = test system: HCT116 human colon cancer cells; experiment: cells; details: Homo sapiens, HCT-116, read-out: cell viability
Protocol: as §1, §2, §3, §9, §5, §6, §10

[10] = alone; PKF118-310 0.7 mg/kg s.c. or ascorbate 1 g/kg i.v. every 3 days
Protocol: The day of the first injection was taken as Day 1, and then the body weight and the tumor size of the nude mice were examined and recorded: the tumor volume (mm^3)=Length (L)×Width (W)^2/2. The tumor was subject to Luciferin fluorescence imaging. That is, a 1 mg/mL of aqueous potassium D-fluorescein solution was prepared, and each mouse was intraperitoneally injected with 100 μL. After 10 min of injection, the mice were subject to Luciferin fluorescence imaging with a small animal live imaging instrument.

[11] = test system: SKOV3 human ovarian cancer cells; experiment: cells; details: Homo sapiens, SK-OV-3, read-out: cell viability
Protocol: as §1, §2, §3, §9, §5, §6
(§14) The inhibitory effect of PKF118-310 on the SKOV3 human ovarian cancer cells and the 3AO human ovarian cancer cells was detected in accordance with the corresponding method of Example 1.

[12] = test system: 3AO human ovarian cancer cells; experiment: cells; details: Homo sapiens, 3AO, read-out: cell viability
Protocol: as §1, §2, §3, §9, §5, §6, §14

[13] = 10 μM in combination with 0.5 mM ascorbic acid
[14] = 20 μM in combination with 0.5 mM sodium ascorbate
[15] = Homo sapiens, MC-38, read-out: cell viability
[16] = Homo sapiens, 143B, read-out: cell viability
[17] = administration of the siRNA alone
[18] = siRNA in combination with 0.5 mM sodium ascorbate

In the case of `Cc1nc2c(=O)n(C)c(=O)nc-2n(C)n1` [3-Methyltoxoflavin], the cell viability ([1]; 10 μM and 0.5 mM ascorbic acid) is reported as 54%, the CDI value [1, 13] is reported as 0.86 and the cell viability ([1]; single drug 10 μM) is reported as 63%.
With `OC1CCC(Oc2cccc3cnc(Nc4ccc5nc[nH]c5c4)nc23)CC1` (centres unmarked) [NCB-0846] the “specificity of inhibition of tumor cell viability as compared with the HEK293 cells” value [2] was “can specifically inhibit the cell viability of the 143B cells and the HOS cells”, the CDI value ([3]; 143B cells, 20 μM in combination with 0.5 mM sodium ascorbate) was 0.13 and the CDI value [1, 14] was 0.16.
For `C[C@H]1[C@H]2N(C(=O)CN(C)N2C(=O)NCc2ccccc2)[C@@H](Cc2ccc(OP(=O)(O)O)cc2)C(=O)N1Cc1cccc2cccnc12` [PRI-724], the CDI value [1, 14] was 0.41, the cell viability [1, 14] was 74% and the cell viability ([1]; single-drug 20 μM) was 102%.
For `Cn1nc(-c2ccc(C(F)(F)F)cc2)nc2c(=O)n(C)c(=O)nc1-2` [Walrycin B], the cell viability ([1]; 10 μM and 0.5 mM ascorbic acid) was 30%, the CDI value [1, 13] was 0.73 and the cell viability ([1]; single drug 10 μM) was 42%.
`CCC(C)c1nc2c(=O)n(C)c(=O)nc-2n(C(C)C)n1` (centres unmarked) [compound C-1] showed a viability at 5 µM [4, 15] of 90%, a CDI value ([4]; MC38 cells, 5 μM in combination with 0.5 mM ascorbic acid) of 0.68 and a cell viability ([4]; human, 24 h, 5 μM) of 59%. The CDI value ([3]; 143B cells, 5 μM in combination with 0.5 mM ascorbic acid) was 0.40, the viability at 5 µM [3, 16] was 50% and the cell viability ([3]; human, 24 h, 5 μM) was 19%.
In the case of `CC(C)c1nc2c(=O)n(C)c(=O)nc-2n(C)n1` [compound C-2], the viability at 1 µM [4, 15] is reported as 83%, the CDI value ([4]; MC38 cells, 1 μM in combination with 0.5 mM ascorbic acid) is reported as 0.07 and the cell viability ([4]; human, 24 h, 1 μM) is reported as 6%. The CDI value ([3]; 143B cells, 1 μM in combination with 0.5 mM ascorbic acid) was 0.37, the viability at 1 µM [3, 16] was 83% and the cell viability ([3]; human, 24 h, 1 μM) was 28%.
With `O=C1[O][Pt]2([NH][C@@H]3CCCC[C@H]3[NH]2)[O]C1=O` [oxaliplatin] the “effect on the cell viability” value [5] was “does not have significant effect on the cell viability” and the “effect on the cell viability” value [6] was “does not have significant effect on the cell viability”.
`O=C1O[C@H]([C@@H](O)CO)C([O-])=C1O.[Na+]` [sodium ascorbate] gave a viability at 500 µM ([7]; Homo sapiens, 0.5 mM sodium ascorbate alone (siRNA experiment)) of 63%, a cell viability [8] of 91% and a viability at 500 µM [9] of 98%. For the same compound, the “effect on the body weight of mice” value [10] was “no effect on the body weight of mice”, the viability at 500 µM ([4]; Homo sapiens, MC-38, read-out: cell viability, MC38 cells, 0.5 mM sodium ascorbate (ascorbic acid) alone) was 83% and the cell viability ([4]; MC38 cells, 0.5 mM sodium ascorbate (ascorbic acid) alone) was 96% and 98%. The cell viability ([3]; 143B cells, 0.5 mM sodium ascorbate (ascorbic acid) alone) was 54% and 80%, the cell viability ([3]; 143B cells, 0.5 mM sodium ascorbate (ascorbic acid) alone, listed as ascorbic acid) was 96% and 92% and the cell viability ([1]; 0.5 mM sodium ascorbate (ascorbic acid) alone) was 91% and 96% and 76%. The cell viability ([1]; 0.5 mM sodium ascorbate (ascorbic acid) alone, listed as ascorbic acid) was 98% and 99%, the viability at 500 µM [11] was 97% and the viability at 500 µM [12] was 99%.
“siRNA 484: siRNA against β-catenin, sense and anti-sense strands SEQ ID NO. 1-2, 2 T-bases at the 3′ end of each strand (sense CCUUCACUCAAGAACAAGU; antisense ACUUGUUCUUGAGUGAAGG; RNA, 3' dTdT, backbone not given here)” gave a cell viability [7, 17] of 90%, a CDI value [7, 18] of 0.46 and a cell viability [7, 18] of 26%.
Work on “siRNA 1202: siRNA against β-catenin, sense and anti-sense strands SEQ ID NO. 3-4, 2 T-bases at the 3′ end of each strand (sense GCUCAUCAUACUGGCUAGU; antisense ACUAGCCAGUAUGAUGAGC; RNA, 3' dTdT, backbone not given here)” yielded a cell viability [7, 17] of 91%, a CDI value [7, 18] of 0.30 and a cell viability [7, 18] of 17%.
“siRNA 1387: siRNA against β-catenin, sense and anti-sense strands SEQ ID NO. 5-6, 2 T-bases at the 3′ end of each strand (sense GUCAACGUCUUGUUCAGAA; antisense UUCUGAACAAGACGUUGAC; RNA, 3' dTdT, backbone not given here)” showed a cell viability [7, 17] of 80%, a CDI value [7, 18] of 0.40 and a cell viability [7, 18] of 20%.
